Measurements from US20220016200A1, “PHARMACEUTICAL COMPOSITION FOR THE TREATMENT OF CYSTIC FIBROSIS” (GALENUS G.H. AG, priority 2018, published 2022).
Where two headings read alike, the source gives them in different places. Bridge positions count the residues as written; N and C are the ends. Square brackets hold non-standard residues; d marks the D form. Peptide text beside a SMILES is read from it. * marks the point of attachment. Heptanoyl(5-Me) = CCC(C)CCCC(=O)*; Dab = NCC[C@H](N)C(=O)O

Key:
[1] = system: A. guillouiae 1285286; test: Checkerboard colistin sulphate (CS) plus teicoplanin (TP), MIC/FIC and MBC/FBC; format: cell-based, Acinetobacter guillouiae; conditions: Acinetobacter guillouiae, agent alone, CAMHB, 5*10^5 CFU/ml
Description: Checkerboard analysis to determine minimal inhibitory concentration (MIC)/fractional inhibitory concentration (FIC) and minimal […] (MBC)/fractional […] (FBC) values of colistin sulphate (CS) plus teicoplanin (TP) for 6 Gram-negative strains with a bacterial load 5(1-10)*10^5 CFU/ml in a cation-adjusted Mueller-Hinton broth (CAMHB). • a. Antimicrobial stock solutions were prepared using sterile distilled water • b. CS was added along the ordinate; TP was added along the abscissa to 96 well, flat bottom, polystyrene panels with no treatment. Colistin alone was tested in triplicates. • c. Serial 2-fold dilutions starting with 640 μg/ml CS and 640 μg/ml TP were made; 15 μl volume of the serial dilutions were added for each agent to the appropriate wells; final volume at 30 μl • d. For each agent tested alone an additional 15 μl media was added to the well. 30 μl were added in control wells where none of the agent was tested. The negative control well contains 150 μl media without any additions • e. From an overnight bacterial culture in tryptic soy broth, 100 μL was added to 10 mL of fresh tryptic soy broth. This was then incubated at 37° C. for 1.5 hour at 180 rpm. • f. Bacteria in 120 μl CAMHB were added to each well (end concentration 5(1-10)*10^5 CFU/ml) • g. Plates were incubated at 37° C. in an ambient air incubator for 24 h • h. Turbidity at OD600 is determined with a plate photometer • i. By using a one-time inoculator 3 μl from each well of the 96-well plate were transferred to three blood agar plates. The plates were incubated over night at 37° C. in an ambient air incubator • j. MIC values are defined as lowest concentration which restricts bacterial growth to OD600 ≤0.1 • k. MBC values were determined by visual reading the lowest concentration which inhibits 99.9% of the growth of bacteria in the wells • l. Determination of the fractional inhibitory concentration (FIC) index and fractional bactericidal concentration (FBC) index and characterization of antimicrobial interactions was assessed […]
FIC calculation was carried out as: (MIC of drug A, tested in combination)/(MIC of drug A, tested alone)+(MIC of drug B, tested in combination)/(MIC of drug B, tested alone). FBC calculation was carried out just as well […]
Interactive categories were calculated from checkerboard analysis using MIC results from testing each agent alone and MIC results from the combination wells adjacent to the wells with growth in them […]
b. Indifference; FIC/FBC>0.5 to<4.0 c. Antagonism; FIC/FBC≥4.0 d. A. guillouiae 1285286 (IHMA), colistin resistant

[2] = system: A. junii 1397597; test: Checkerboard fusidic acid (FD) and colistin sulfate (CS), MIC/FIC and MBC/FBC; format: cell-based, Acinetobacter junii
Description: (§1) Checkerboard assays between fusidic acid (FD) and colistin sulfate (CS) with a bacterial load 5(1-10)*10^5 CFU/ml in cationic adapted Mueller Hinton broth (CAMHB). • a. Antimicrobial stock solutions were prepared using sterile distilled water; • b. CS was added along the ordinate; FD was added along the abscissa to 96 well, flat bottom, polystyrene panels with no treatment. Colistin alone was tested in triplicates; • c. Serial 2-fold dilutions starting with 640 […] CS and 640 μg/ml FD were made; 15 μl volume of the serial dilutions were added for each agent to the appropriate wells—final volume at 30 μl; • d. For each agent tested alone an additional 15 μl media was added to the well. 30 μl were added in control wells where none of the agent was tested. The negative control well contains 150 μl media without any additions; • e. From an overnight bacterial culture in tryptic soy broth, 100 μL was added to 10 mL of fresh tryptic soy broth. This was then incubated at 37° C. for 1.5 hour at 180 rpm; • f. Bacteria in 120 μl CAMHB were added to each well (end concentration 5(1-10)*10^5 CFU/ml); • g. Plates were incubated at 37° C. in an ambient air incubator for 24 h • h. Turbidity at OD600 is determined with a plate photometer • i. By using a one-time inoculator 3 μl from each well of the 96-well plate were transferred to three blood agar plates. The plates were incubated over night at 37° C. in an ambient air incubator; • j. MIC values are defined as lowest concentration which restricts bacterial growth to OD600≤0.1; • k. MBC values were determined by visual reading the lowest concentration which inhibits 99.9% of the growth of bacteria in the wells; • l. Determination of the fractional inhibitory concentration (FIC) index and fractional bactericidal concentration (FBC) index and characterization of antimicrobial interactions was assessed;
(§2) FIC calculation was carried out as: (MIC of drug A, tested in combination)/(MIC of drug A, tested alone)+(MIC of drug B, tested in combination)/(MIC of drug B, tested alone). FBC calculation was carried out just as well;
(§3) Interactive categories were calculated from checkerboard analysis using MIC results from testing each agent alone and MIC results from the combination wells adjacent to the wells with growth in them.
(§4) Determination of the fractional inhibitory concentration (FIC) index and fractional bactericidal concentration (FBC) index and characterization of antimicrobial interactions was assessed:
(§5) (ii) Indifference; FIC/FBC>0.5 to <4.0
(§6) (iii) Antagonism; FIC/FBC≥4.0
a. Acinetobacter junii 1391597 (IHMA), colistin resistant (CS 2/2-2/8)

[3] = system: S. maltophilia 1237289; test: Checkerboard fusidic acid (FD) and colistin sulfate (CS), MIC/FIC; format: cell-based, Stenotrophomonas maltophilia; conditions: for MIC: S. maltophilia 1237289, agent alone, CAMHB, 1*10^6 CFU/ml
Description: as §1, §2, §3, §4, §5, §6
e. Stenotrophomonas maltophilia 1237289 (IHMA), colistin resistant (CS 2/4-4/8-8/8)

Work on CCC(C)CCCC(=O)N[C@@H](CCN)C(=O)N[C@H](C(=O)N[C@@H](CCN)C(=O)N[C@H]1CCNC(=O)[C@H]([C@@H](C)O)NC(=O)[C@H](CCN)NC(=O)[C@H](CCN)NC(=O)[C@H](CC(C)C)NC(=O)[C@@H](CC(C)C)NC(=O)[C@H](CCN)NC1=O)[C@@H](C)O (stereo partly drawn) [CS, colistin sulphate] ({Heptanoyl(5-Me)}-[Dab]T[Dab][Dab][Dab][dL]L[Dab][Dab]T; lactam 4-C) yielded an MBC ([1]; 1285286, A. guillouiae, read-out: MBC) of 4 mg/L, an MIC ([1]; A. guillouiae 1285286, 24 h, read-out: MIC) of 2 mg/L and an MIC ([2]; A. junii 1397597, agent alone, CAMHB, 1*10^6 CFU/ml, 24 h) of 2 mg/1l. It also gave an MBC ([2]; Acinetobacter junii, 1397597, A. junii 1397597, agent alone, CAMHB, 1*10^6 CFU/ml) of 2 mg/L, an MIC ([2]; Acinetobacter junii, 1397597, organism list of Example 3, repeated determinations, read-out: Colistin CS MIC) of 2 mg/L and an MIC ([3]; 24 h) of 1 mg/1l. The MIC ([3]; after 48 h growth (values in brackets)) was “(4) mg/1l” and the MBC ([3]; Stenotrophomonas maltophilia, 1237289, organism list of Example 3, Stenotrophomonas maltophilia 1237289, repeated determinations) was 4 mg/L.
